In BindingDB's records for doi:10.1016/j.bioorg.2017.02.010 (Charles University, 2017) one finds IC50 data, which are given here for 32 molecules.

Where “and” joins values, the source holds several entries; their conditions need not be identical. Equal values may be shown once.

The target of test [1] is Carboxylic ester hydrolase (Equus caballus, UniProt Q9N1N9). Put plainly: Cholinesterase Inhibition Assay.
The target in a further test is Acetylcholinesterase (Electrophorus electricus, UniProt O42275). Put plainly: Cholinesterase Inhibition Assay.
Sequence of Acetylcholinesterase (O42275 whole entry): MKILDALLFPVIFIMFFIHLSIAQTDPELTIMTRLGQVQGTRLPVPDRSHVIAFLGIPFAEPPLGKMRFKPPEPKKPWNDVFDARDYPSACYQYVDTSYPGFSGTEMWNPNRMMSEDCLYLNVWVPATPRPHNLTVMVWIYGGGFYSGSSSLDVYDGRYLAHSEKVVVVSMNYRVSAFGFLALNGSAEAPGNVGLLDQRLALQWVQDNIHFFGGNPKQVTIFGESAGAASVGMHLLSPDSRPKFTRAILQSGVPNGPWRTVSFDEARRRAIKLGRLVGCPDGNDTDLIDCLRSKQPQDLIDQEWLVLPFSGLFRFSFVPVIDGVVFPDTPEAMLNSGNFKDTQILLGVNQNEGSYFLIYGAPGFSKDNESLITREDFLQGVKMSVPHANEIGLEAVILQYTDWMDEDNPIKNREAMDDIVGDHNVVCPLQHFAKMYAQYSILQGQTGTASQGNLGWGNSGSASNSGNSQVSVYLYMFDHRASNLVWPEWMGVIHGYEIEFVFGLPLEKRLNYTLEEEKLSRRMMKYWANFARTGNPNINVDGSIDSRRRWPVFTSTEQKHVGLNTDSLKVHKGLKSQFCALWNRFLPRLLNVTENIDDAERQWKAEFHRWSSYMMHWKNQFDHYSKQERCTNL

Sequence of Carboxylic ester hydrolase (Q9N1N9 whole entry): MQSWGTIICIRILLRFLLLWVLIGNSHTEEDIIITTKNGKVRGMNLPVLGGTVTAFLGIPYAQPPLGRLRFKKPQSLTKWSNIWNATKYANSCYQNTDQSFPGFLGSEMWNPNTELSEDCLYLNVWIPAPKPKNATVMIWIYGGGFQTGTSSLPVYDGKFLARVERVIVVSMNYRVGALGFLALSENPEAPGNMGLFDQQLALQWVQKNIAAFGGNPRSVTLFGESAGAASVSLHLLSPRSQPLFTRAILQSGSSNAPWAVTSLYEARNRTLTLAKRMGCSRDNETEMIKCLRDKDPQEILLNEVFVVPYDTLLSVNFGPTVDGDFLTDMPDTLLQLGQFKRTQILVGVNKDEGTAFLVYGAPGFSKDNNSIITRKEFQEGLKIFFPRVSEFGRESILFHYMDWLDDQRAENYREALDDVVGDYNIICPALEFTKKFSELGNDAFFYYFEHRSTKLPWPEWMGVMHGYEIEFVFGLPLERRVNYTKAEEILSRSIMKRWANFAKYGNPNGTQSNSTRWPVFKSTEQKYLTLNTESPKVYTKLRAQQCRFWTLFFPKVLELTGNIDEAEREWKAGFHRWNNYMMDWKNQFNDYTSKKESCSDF

In general, IC50 refers to the concentration that gives 50% inhibition. Read a low IC50 as inhibition by little substance. In the case of `CC(=O)NC(Cc1ccccc1F)C(=O)Nc1ccc(C)cc1` (centres undefined) [2-Acetamido-3-(2-fluorophenyl)-N-(4-methylphenyl)propanamide (1b)], the IC50 in test [1] amounted to 113 µM; against Acetylcholinesterase it was 69 µM.

In the case of `CC(=O)NC(Cc1ccccc1F)C(=O)Nc1ccc([N+](=O)[O-])cc1` (centres undefined) [2-Acetamido-3-(2-fluorophenyl)-N-(4-nitrophenyl)propanamide (1c)], the results for the IC50 (in test [1]; against Acetylcholinesterase) were 154 µM and 64.4 µM, respectively.

Take `CC(=O)NC(Cc1ccccc1F)C(=O)Nc1ccc(C(F)(F)F)cc1` (centres undefined) [2-Acetamido-3-(2-fluorophenyl)-N-[4-(trifluoromethyl)phenyl]propanamide (1d)]: the IC50 stood at 218 µM in test [1] and 73.4 µM on Acetylcholinesterase.

On to `CC(=O)NC(Cc1ccccc1F)C(=O)Nc1ccccc1` (centres undefined) [2-Acetamido-3-(2-fluorophenyl)-N-phenylpropanamide (1e)], for which the results for the IC50 (in test [1]; against Acetylcholinesterase) were 121 µM and 86.3 µM, respectively.

In the case of `CC(=O)NC(Cc1cccc(F)c1)C(=O)Nc1ccc(C)cc1` (centres undefined) [2-Acetamido-3-(3-fluorophenyl)-N-(4-methylphenyl)propanamide (2b)], the figures for the IC50 (in test [1]; against Acetylcholinesterase) were 143 µM and 68.7 µM, respectively.

Turning to `CC(=O)NC(Cc1cccc(F)c1)C(=O)Nc1ccc([N+](=O)[O-])cc1` (centres undefined) [2-Acetamido-3-(3-fluorophenyl)-N-(4-nitrophenyl)propanamide (2c)], the values for the IC50 (in test [1]; against Acetylcholinesterase) were 120 µM and 70.6 µM, respectively.

In the case of `CC(=O)NC(Cc1cccc(F)c1)C(=O)Nc1ccc(C(F)(F)F)cc1` (centres undefined) [2-Acetamido-3-(3-fluorophenyl)-N-[4-(trifluoromethyl)phenyl]propanamide (2d)], the values for the IC50 (in test [1]; against Acetylcholinesterase) were 164 µM and 79.4 µM, respectively.

`CC(=O)NC(Cc1cccc(F)c1)C(=O)Nc1ccccc1` (centres undefined) [2-Acetamido-3-(3-fluorophenyl)-N-phenylpropanamide (2e)]: the IC50 in test [1] amounted to 157 µM; on Acetylcholinesterase it was 86.5 µM.

Turning to `CC(=O)NC(Cc1ccc(F)cc1)C(=O)Nc1ccc(C)cc1` (centres undefined) [2-Acetamido-3-(4-fluorophenyl)-N-(4-methylphenyl)propanamide (3b)], the IC50 in test [1] is 154 µM; on Acetylcholinesterase, 69 µM.

Take `CC(=O)NC(Cc1ccc(F)cc1)C(=O)Nc1ccc([N+](=O)[O-])cc1` (centres undefined) [2-Acetamido-3-(4-fluorophenyl)-N-(4-nitrophenyl)propanamide (3c)]: the IC50 in test [1] stood at 162 µM; against Acetylcholinesterase, 66 µM.

For `CC(=O)NC(Cc1ccc(F)cc1)C(=O)Nc1ccc(C(F)(F)F)cc1` (centres undefined) [2-Acetamido-3-(4-fluorophenyl)-N-[4-(trifluoromethyl)phenyl]propanamide (3d)], the IC50 in test [1] came out at 289 µM; against Acetylcholinesterase it was 84.1 µM.

Take `CC(=O)NC(Cc1ccc(F)cc1)C(=O)Nc1ccccc1` (centres undefined) [2-Acetamido-3-(4-fluorophenyl)-N-phenylpropanamide (3e)]: the IC50 worked out at 89.8 µM in test [1] and 99.8 µM at Acetylcholinesterase.

As for `CC(=O)NC(Cc1ccccc1F)C(=O)Nc1ccc(Cl)cc1` (centres undefined) [2-Acetamido-N-(4-chlorophenyl)-3-(2-fluorophenyl)propanamide (1a)], the IC50 in test [1] came out at 227 µM; at Acetylcholinesterase it was 76.5 µM.

As to `CC(=O)NC(Cc1cccc(F)c1)C(=O)Nc1ccc(Cl)cc1` (centres undefined) [2-Acetamido-N-(4-chlorophenyl)-3-(3-fluorophenyl)propanamide (2a)], the IC50 in test [1] is 170 µM; against Acetylcholinesterase, 70.7 µM.

With `CC(=O)NC(Cc1ccc(F)cc1)C(=O)Nc1ccc(Cl)cc1` (centres undefined) [2-Acetamido-N-(4-chlorophenyl)-3-(4-fluorophenyl)propanamide (3a)], the IC50 in test [1] was 235 µM; at Acetylcholinesterase, 97 µM.

As to `CC(=O)NC(Cc1ccccc1F)C(=O)O` (centres undefined) [2-acetamido-3-(2-fluorophenyl)propanoic acid (1)], the IC50 in test [1] was determined as 217 µM; on Acetylcholinesterase it was 64.2 µM.

Take `CC(=O)NC(Cc1cccc(F)c1)C(=O)O` (centres undefined) [2-acetamido-3-(3-fluorophenyl)propanoic acid (2)]: the IC50 in test [1] was found to be 210 µM; on Acetylcholinesterase, 63.6 µM.

For the molecule `CC(=O)NC(Cc1ccc(F)cc1)C(=O)O` (centres undefined) [2-acetamido-3-(4-fluorophenyl)propanoic acid (3)], the IC50 in test [1] turned out to be 227 µM; on Acetylcholinesterase, 63.7 µM.

As for `CC(=O)NC(Cc1ccccc1F)C(=O)Oc1ccc(C(F)(F)F)cc1` (centres undefined) [4-(Trifluoromethyl)phenyl 2-acetamido-3-(2-fluorophenyl)propanoate (1i)], the IC50 in test [1] is 37.4 µM and 59.8 µM; against Acetylcholinesterase it was 68 µM and 62.9 µM.

Regarding `CC(=O)NC(Cc1cccc(F)c1)C(=O)Oc1ccc(C(F)(F)F)cc1` (centres undefined) [4-(Trifluoromethyl)phenyl 2-acetamido-3-(3-fluorophenyl)propanoate (2i)], the IC50 in test [1] worked out at 34 µM; against Acetylcholinesterase, 62.2 µM.

Regarding `CC(=O)NC(Cc1ccccc1F)C(=O)Oc1ccc(Cl)cc1` (centres undefined) [4-Chlorophenyl 2-acetamido-3-(2-fluorophenyl)propanoate (1f)], the values for the IC50 (in test [1]; against Acetylcholinesterase) were 82.2 µM and 104 µM, respectively.

`CC(=O)NC(Cc1cccc(F)c1)C(=O)Oc1ccc(Cl)cc1` (centres undefined) [4-Chlorophenyl 2-acetamido-3-(3-fluorophenyl)propanoate (2f)]: the IC50 was found to be 52.7 µM in test [1] and 115 µM at Acetylcholinesterase.

As for `CC(=O)NC(Cc1ccc(F)cc1)C(=O)Oc1ccc(Cl)cc1` (centres undefined) [4-Chlorophenyl 2-acetamido-3-(4-fluorophenyl)propanoate (3f)], the IC50 in test [1] came to 59.1 µM; against Acetylcholinesterase, 131 µM.

For the molecule `CC(=O)NC(Cc1ccccc1F)C(=O)Oc1ccc(C)cc1` (centres undefined) [4-Methylphenyl 2-acetamido-3-(2-fluorophenyl)propanoate (1g)], the results for the IC50 (in test [1]; against Acetylcholinesterase) were 85.4 µM and 57.9 µM, respectively.

For the molecule `CC(=O)NC(Cc1cccc(F)c1)C(=O)Oc1ccc(C)cc1` (centres undefined) [4-Methylphenyl 2-acetamido-3-(3-fluorophenyl)propanoate (2g)], the figures for the IC50 (in test [1]; on Acetylcholinesterase) were 90.9 µM and 68.5 µM, respectively.

Take `CC(=O)NC(Cc1ccc(F)cc1)C(=O)Oc1ccc(C)cc1` (centres undefined) [4-Methylphenyl 2-acetamido-3-(4-fluorophenyl)propanoate (3g)]: the concentration for half-maximal inhibition (IC50) in test [1] amounted to 83.3 µM; at Acetylcholinesterase, 73.3 µM.

In the case of `CC(=O)NC(Cc1ccccc1F)C(=O)Oc1ccc([N+](=O)[O-])cc1` (centres undefined) [4-Nitrophenyl 2-acetamido-3-(2-fluorophenyl)propanoate (1h)], the IC50 was 77.5 µM in test [1] and 76.7 µM against Acetylcholinesterase.

`CC(=O)NC(Cc1cccc(F)c1)C(=O)Oc1ccc([N+](=O)[O-])cc1` (centres undefined) [4-Nitrophenyl 2-acetamido-3-(3-fluorophenyl)propanoate (2h)]: the IC50 in test [1] was 142 µM; on Acetylcholinesterase it was 74.3 µM.

As to `CC(=O)NC(Cc1ccc(F)cc1)C(=O)Oc1ccc([N+](=O)[O-])cc1` (centres undefined) [4-Nitrophenyl 2-acetamido-3-(4-fluorophenyl)propanoate (3h)], the results for the IC50 (in test [1]; at Acetylcholinesterase) were 126 µM and 60 µM, respectively.

For `CC(=O)NC(Cc1ccccc1F)C(=O)Oc1ccccc1` (centres undefined) [Phenyl 2-acetamido-3-(2-fluorophenyl)propanoate (1j)], the figures for the IC50 (in test [1]; against Acetylcholinesterase) were 30 µM and 79.2 µM, respectively.

For the molecule `CC(=O)NC(Cc1cccc(F)c1)C(=O)Oc1ccccc1` (centres undefined) [Phenyl 2-acetamido-3-(3-fluorophenyl)propanoate (2j)], the figures for the IC50 (in test [1]; on Acetylcholinesterase) were 53.7 µM and 87.8 µM, respectively.

Consider `CC(=O)NC(Cc1ccc(F)cc1)C(=O)Oc1ccccc1` (centres undefined) [Phenyl 2-acetamido-3-(4-fluorophenyl)propanoate (3j)], for which the IC50 in test [1] came to 8.25 µM; at Acetylcholinesterase, 98.3 µM.
